The results in this text go back to patent publication US12662491B2 (Redona Therapeutics, Inc., priority 2020, dated 2026).

In this experiment the target is T1, Zcchc11 enzyme (Homo sapiens, UniProt Q5TAX3).
T1 construct: made in house; host or cells: HEK293 cells (Zcchc11); E. coli Rosetta II (LIN28A)
T1 sequence (Q5TAX3 212-1420): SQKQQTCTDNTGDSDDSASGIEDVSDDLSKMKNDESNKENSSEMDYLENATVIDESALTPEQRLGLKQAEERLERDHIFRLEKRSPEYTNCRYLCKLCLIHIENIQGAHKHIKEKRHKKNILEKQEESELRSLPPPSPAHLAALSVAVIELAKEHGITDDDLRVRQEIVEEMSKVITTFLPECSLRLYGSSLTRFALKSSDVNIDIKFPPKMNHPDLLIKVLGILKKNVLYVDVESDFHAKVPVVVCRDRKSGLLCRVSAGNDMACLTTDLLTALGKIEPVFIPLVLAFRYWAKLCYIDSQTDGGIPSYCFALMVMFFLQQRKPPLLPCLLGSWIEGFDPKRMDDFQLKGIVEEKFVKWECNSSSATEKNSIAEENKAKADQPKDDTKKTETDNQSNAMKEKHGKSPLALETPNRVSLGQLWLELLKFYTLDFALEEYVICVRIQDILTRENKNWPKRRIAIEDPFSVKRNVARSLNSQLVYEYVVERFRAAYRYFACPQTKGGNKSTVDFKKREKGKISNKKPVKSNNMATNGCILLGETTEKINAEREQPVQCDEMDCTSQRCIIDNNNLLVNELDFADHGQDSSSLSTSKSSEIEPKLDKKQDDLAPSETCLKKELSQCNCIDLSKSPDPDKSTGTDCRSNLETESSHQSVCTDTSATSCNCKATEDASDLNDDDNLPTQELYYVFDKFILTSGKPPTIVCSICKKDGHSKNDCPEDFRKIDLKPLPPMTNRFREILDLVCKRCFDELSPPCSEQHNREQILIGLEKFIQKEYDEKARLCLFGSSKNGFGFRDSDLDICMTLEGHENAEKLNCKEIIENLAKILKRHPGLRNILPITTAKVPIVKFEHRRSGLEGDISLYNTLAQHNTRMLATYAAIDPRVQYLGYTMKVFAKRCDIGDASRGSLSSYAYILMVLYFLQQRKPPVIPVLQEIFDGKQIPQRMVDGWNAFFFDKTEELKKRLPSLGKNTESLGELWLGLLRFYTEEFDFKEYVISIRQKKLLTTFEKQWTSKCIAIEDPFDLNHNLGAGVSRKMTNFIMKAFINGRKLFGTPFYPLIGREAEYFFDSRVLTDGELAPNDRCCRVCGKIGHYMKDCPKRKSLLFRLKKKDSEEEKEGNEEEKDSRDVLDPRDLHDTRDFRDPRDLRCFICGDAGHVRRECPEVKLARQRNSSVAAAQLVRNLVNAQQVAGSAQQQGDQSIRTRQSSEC
Briefly: TUTase assay (Zcchc11 assay, Lin28a-dependent polyuridylation of pre-let-7). It counts as biochemical. The note with it: Lin28a-dependent Zcchc11 (Z11) TUTase assay; read-out: Potency Lin28a-dep Z11 IC50. In short, it runs like this: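 LIN28A (10 nM) in pH 7.3 HEPES/KCl/MgCl2/DTT buffer was mixed with serially diluted compound, then 0.2 nM truncated human Zcchc11 and 2 nM labeled pre-let-7 were added for 30 min at room temperature. UTP (5 uM) and quench probe (4 nM) then started the reaction. Linear early rates gave IC50 values.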

As a reminder, the IC50 is the concentration that inhibits the measured activity by half.

In the case of `COCCn1cc(-n2cc(C(=O)O)c(=O)c3cc(Cl)c(N4CCC[C@@H]4COc4ncccc4Cl)cc32)cn1` [Example 435, (R)-6-chloro-7-(2-(((3-chloropyridin-2-yl)oxy)methyl)pyrrolidin-1-yl)-1-(1-(2-methoxy-ethyl)-1H-pyrazol-4-yl)-4-oxo-1,4-dihydroquinoline-3-carboxylic acid], the IC50 is at most 1 µM.

For the molecule `Cn1cc(-n2cc(C(=O)O)c(=O)c3cc(Cl)c(N4CCC[C@@H]4COc4ncccc4Cl)cc32)cn1` [Example 436, (R)-6-chloro-7-(2-(((3-chloropyridin-2-yl)oxy)methyl)pyrrolidin-1-yl)-1-(1-methyl-1H-pyrazol-4-yl)-4-oxo-1,4-dihydroquinoline-3-carboxylic acid], the IC50 is at most 1 µM.

Regarding `CN(C)CCn1cc(-n2cc(C(=O)O)c(=O)c3cc(Cl)c(N4CCC[C@@H]4COc4ncccc4Cl)cc32)cn1` [Example 437, (R)-6-chloro-7-(2-(((3-chloropyridin-2-yl)oxy)methyl)pyrrolidin-1-yl)-1-(1-(2-(dimethylamino)ethyl)-1H-pyrazol-4-yl)-4-oxo-1,4-dihydroquinoline-3-carboxylic acid], the IC50 is at most 1 µM.

On to `O=C(O)c1cn(-c2ccc3[nH]ccc3c2F)c2cc(N3CCC[C@@H]3COc3ccccn3)c(F)cc2c1=O` [Example 438, (R)-6-fluoro-1-(4-fluoro-1H-indol-5-yl)-4-oxo-7-(2-((pyridin-2-yloxy)methyl)pyrrolidin-1-yl)-1,4-dihydroquinoline-3-carboxylic acid], for which the IC50 was at most 1 µM.

In the case of `O=C(O)c1cn(-c2ccc3[nH]ccc3c2)c2cc(N3CCC[C@@H]3COc3ccccn3)c(F)cc2c1=O` [Example 439, (R)-6-fluoro-1-(1H-indol-5-yl)-4-oxo-7-(2-((pyridin-2-yloxy)methyl)pyrrolidin-1-yl)-1,4-dihydroquinoline-3-carboxylic acid], the IC50 is at most 1 µM.

Consider `O=C(O)c1cn(-c2ccc3[nH]cnc3c2)c2cc(N3CCC[C@@H]3COc3ccccn3)c(F)cc2c1=O` [Example 440, (R)-1-(1H-benzo[d]imidazol-5-yl)-6-fluoro-4-oxo-7-(2-((pyridin-2-yloxy)methyl)pyrrolidin-1-yl)-1,4-dihydroquinoline-3-carboxylic acid], for which the IC50 was at most 1 µM.

In the case of `O=C(O)c1cn(-c2ccc3[nH]c(=O)[nH]c3c2)c2cc(N3CCC[C@@H]3COc3ccccn3)c(F)cc2c1=O` [Example 441, (R)-6-fluoro-4-oxo-1-(2-oxo-2,3-dihydro-1H-benzo[d]imidazol-5-yl)-7-(2-((pyridin-2-yloxy)methyl)pyrrolidin-1-yl)-1,4-dihydroquinoline-3-carboxylic acid], the IC50 was at most 1 µM.

Turning to `Cc1cccnc1OC[C@H]1CCCN1c1cc2c(cc1F)c(=O)c(C(=O)O)cn2-c1ccc2[nH]ccc2c1` [Example 442, (R)-6-fluoro-1-(1H-indol-5-yl)-7-(2-(((3-methyl-pyridin-2-yl)oxy)methyl)pyrrolidin-1-yl)-4-oxo-1,4-dihydroquinoline-3-carboxylic acid], the IC50 is at most 1 µM.

Turning to `Cc1cccnc1OC[C@H]1CCCN1c1cc2c(cc1F)c(=O)c(C(=O)O)cn2-c1ccc2[nH]c(=O)[nH]c2c1` [Example 443, (R)-6-fluoro-7-(2-(((3-methylpyridin-2-yl)oxy)methyl)pyrrolidin-1-yl)-4-oxo-1-(2-oxo-2,3-dihydro-1H-benzo[d]imidazol-5-yl)-1,4-dihydroquinoline-3-carboxylic acid], the IC50 was at most 1 µM.

As to `Cc1cccnc1OC[C@H]1CCCN1c1cc2c(cc1Cl)c(=O)c(C(=O)O)cn2-c1ccc2[nH]cnc2c1` [Example 444, (R)-1-(1H-benzo[d]imidazol-5-yl)-6-chloro-7-(2-(((3-methylpyridin-2-yl)oxy)methyl)pyrrolidin-1-yl)-4-oxo-1,4-dihydroquinoline-3-carboxylic acid], the half-maximal inhibitory concentration (IC50) was at most 1 µM.

Consider `O=C(O)c1cn(-c2ccc3c(c2)CCOC3)c2cc(N3CCC[C@@H]3COc3ncccc3Cl)c(Cl)cc2c1=O` [Example 445, (R)-6-chloro-7-(2-(((3-chloropyridin-2-yl)oxy)methyl)pyrrolidin-1-yl)-1-(isochroman-6-yl)-4-oxo-1,4-dihydroquinoline-3-224 carboxylic acid], for which the IC50 is at most 1 µM.

In the case of `CC1CC1n1cc(C(=O)O)c(=O)c2cc(F)c(N3CCC[C@@H]3COc3ccccn3)cc21` (stereo partly drawn) [Example 446, 6-fluoro-1-(2-methylcyclo-propyl)-4-oxo-7-((R)-2-((pyridin-2-yloxy)methyl)pyrrolidin-1-yl)-1,4-dihydro-quinoline-3-carboxylic acid], the IC50 lay in the range of 1 to 10 µM.

In the case of `O=C(O)c1cn(C2CC2)c2cc(N3CCC[C@@H]3COc3ccccn3)c(F)cc2c1=O` [Example 447, (R)-1-cyclopropyl-6-fluoro-4-oxo-7-(2-((pyridin-2-yloxy)methyl)pyrrolidin-1-yl)-1,4-dihydroquinoline-3-carboxylic acid], the IC50 was in the range of 1 to 10 µM.

`O=C(O)c1cn(C2CCC2)c2cc(N3CCC[C@@H]3COc3ccccn3)c(F)cc2c1=O` [Example 448, (R)-1-cyclobutyl-6-fluoro-4-oxo-7-(2-((pyridin-2-yloxy)methyl)pyrrolidin-1-yl)-1,4-dihydroquinoline-3-carboxylic acid]: the IC50 is 1 to 10 µM.

In the case of `O=C(O)c1cn(C2CCCC2)c2cc(N3CCC[C@@H]3COc3ccccn3)c(F)cc2c1=O` [Example 449, (R)-1-cyclopentyl-6-fluoro-4-oxo-7-(2-((pyridin-2-yloxy)methyl)pyrrolidin-1-yl)-1,4-dihydroquinoline-3-carboxylic acid], the IC50 is 1 to 10 µM.

Regarding `O=C(O)c1cn(C2CCOCC2)c2cc(N3CCC[C@@H]3COc3ccccn3)c(F)cc2c1=O` [Example 450, (R)-6-fluoro-4-oxo-7-(2-((pyridin-2-yloxy)methyl)pyrrolidin-1-yl)-1-(tetrahydro-2H-pyran-4-yl)-1,4-dihydroquinoline-3-carboxylic acid], the IC50 fell in the range of 1 to 10 µM.

Regarding `O=C(O)c1cn(C2COC2)c2cc(N3CCC[C@@H]3COc3ccccn3)c(F)cc2c1=O` [Example 451, (R)-6-fluoro-1-(oxetan-3-yl)-4-oxo-7-(2-((pyridin-2-yloxy)methyl)pyrrolidin-1-yl)-1,4-dihydroquinoline-3-carboxylic acid], the IC50 was in the range of 1 to 10 µM.

For the molecule `O=C(O)c1cn(C2CC(O)C2)c2cc(N3CCC[C@@H]3COc3ccccn3)c(F)cc2c1=O` (stereo partly drawn) [Example 452, (R)-6-fluoro-1-(3-hydroxycyclo-butyl)-4-oxo-7-(2-((pyridin-2-yloxy)methyl)pyrrolidin-1-yl)-1,4-dihydroquinoline-3-carboxylic acid], the IC50 was in the range of 1 to 10 µM.

For the molecule `O=C(O)c1cn(C2CC(CO)C2)c2cc(N3CCC[C@@H]3COc3ccccn3)c(F)cc2c1=O` (stereo partly drawn) [Example 453, (R)-6-fluoro-1-(3-(hydroxymethyl)cyclobutyl)-4-oxo-7-(2-((pyridin-2-yloxy)methyl)pyrrolidin-1-yl)-1,4-dihydroquinoline-3-carboxylic acid], the IC50 lay within 10 to 50 µM.

As to `Cc1cccnc1OC[C@H]1CCCN1c1cc2c(cc1Cl)c(=O)c(C(=O)O)cn2C1(CO)CC1` [Example 454, (R)-6-chloro-1-(1-(hydroxymethyl)cyclopropyl)-7-(2-(((3-methyl-pyridin-2-yl)oxy)methyl)pyrrolidin-1-yl)-4-oxo-1,4-dihydroquinoline-3-carboxylic acid], the IC50 lay within 1 to 10 µM.

Consider `Cc1cccnc1OC[C@H]1CCCN1c1cc2c(cc1Cl)c(=O)c(C(=O)O)cn2C1(C)CCC1` [Example 455, (R)-6-chloro-1-(1-methylcyclobutyl)-7-(2-(((3-methylpyridin-2-yl)oxy)methyl)pyrrolidin-1-yl)-4-oxo-1,4-dihydroquinoline-3-carboxylic acid], for which the IC50 was 1 to 10 µM.

As to `Cc1cccnc1OC[C@H]1CCCN1c1cc2c(cc1Cl)c(=O)c(C(=O)O)cn2C1(C)COC1` [Example 456, (R)-6-chloro-1-(3-methyloxetan-3-yl)-7-(2-(((3-methylpyridin-2-yl)oxy)methyl)pyrrolidin-1-yl)-4-oxo-1,4-dihydroquinoline-3-carboxylic acid], the IC50 lay within 1 to 10 µM.
